Results reported in patent US20250388551A1, “COMPOUNDS INDUCING PRODUCTION OF PROTEINS BY IMMUNE CELLS” (UNIVERSITE PARIS CITE, priority 2022, published 2025).

These molecules were tested on human B cells (assay: IL-10 induction in human B cells cultivated with anti-IgM plus CpG). Conditions: B-cell, 48 h, 2 days, IL-10 in cell culture supernatants, read-out: IL-10 mean induction fold in human B cells treated with compound compared to DMSO control.
Format: cell-based
Protocol: Human B cells isolated magnetically through negative selection (B Cell Isolation Kit II, human, Miltenyi ref: 130-091-151) were cultivated for 2 consecutive days in the presence of anti-IgM plus CpG in the presence of the indicated molecule (see table 1) at 0.25 μM final concentration, or DMSO as control. IL-10 was measured in cell culture supernatants, and the IL-10 induction fold was calculated for each molecule compared to the DMSO control.
Human B cells isolated magnetically through negative selection (B Cell Isolation Kit II, human, Miltenyi ref: 130-091-151) were cultivated for 2 consecutive days in the presence of anti-IgM plus CpG in the presence of DMSO (as control) or in the presence of the tested molecule at 0.25 μM final concentration. IL-10 was measured in cell culture supernatants. NS: non stimulated B cell culture condition.

Structure (SMILES)	fold induction at 0.25 µM
COc1cccc(F)c1C(=O)Nc1ccc2[nH]c(-c3ccc(F)cc3)nc2c1 [Compound 1, 2-Fluoro-N-[2-(4-fluorophenyl)-1H-benzimidazol-6-yl]-6-methoxybenzamide]	1.91
CN(C)S(=O)(=O)c1cc(C(=O)Nc2ccc3[nH]c(-c4ccc(F)cc4)nc3c2)ccc1Cl [Compound 4, 4-Chloro-3-[(dimethylamino)sulfonyl]-N-[2-(4-fluorophenyl)-1H-benzimidazol-6-yl]benzamide]	1.49
O=C(Nc1ccc(-c2nc3ccc(NC(=O)c4ccc(/N=C/c5ccccc5O)cc4)c(Cl)c3[nH]2)cc1)c1ccc(/N=C/c2ccccc2O)cc1 [Compound 22, N-[4-(7-chloro-6-{[(4-{[(E)-(2-hydroxyphenyl)methylidene]amino}phenyl)carbonyl]amino}-1H-benzimidazol-2-yl)phenyl]-4-{[(E)-(2-hydroxyphenyl)methylidene]amino} benzamide]	1.34
Cc1ccc(-c2nn3c4ccc(NC(=O)c5ccccc5I)cc4nc3c3ccccc23)cc1 [Compound 30, 2-lodo-N-[5-(4-methyl-phenyl)benzimidazo[2,1-a]phthalazin-10-yl]benzamide]	1.37
Cc1ccc(-c2nn3c4ccc(NC(=O)c5ccccc5)cc4nc3c3ccccc23)cc1 [Compound 31, N-[5-(4-Methylphenyl)benzimidazo [2,1-a]phthalazin-10-yl]benzamide]	1.72
COc1ccccc1C(=O)Nc1ccc2c(c1)nc1c3ccccc3c(-c3ccc(C)cc3)nn21 [Compound 32, 2-Methoxy-N-[5-(4-methylphenyl)benzimidazo [2,1-a]phthalazin-10-yl]benzamide]	1.42
COc1ccccc1C(=O)Nc1ccc2c(c1)nc1c3ccccc3c(C)nn21 [Compound 40, 2-Methoxy-N-(5-methylbenzimidazo[2,1-a]phthalazin-10-yl)benzamide]	1.72
O=C(Nc1ccc2c(c1)nc1c3ccccc3c(-c3ccc(Cl)cc3)nn21)c1ccccc1 [Compound 43, N-[5-(4-Chloro-phenyl)benzimidazo[2,1-a]phthalazin-10-yl]benzamide]	1.3
CSc1ccccc1C(=O)Nc1ccc2[nH]c(-c3cccc(F)c3)nc2c1 [Compound 52, N-[2-(3-Fluorophenyl)-1H-benzimidazol-6-yl]-2-(methylthio)benzamide]	1.91
O=C(Nc1ccc2[nH]c(-c3ccc(F)cc3)nc2c1)c1cc(F)cc2nccnc12 [Compound 54, 7-Fluoro-N-[2-(4-fluorophenyl)-1H-benzimidazol-6-yl]-5-quinoxalinecarboxamide]	1.71
O=C(Nc1ccc2[nH]c(-c3cc(F)ccc3F)nc2c1)c1cc(F)cc2nccnc12 [Compound 56, N-[2-(2,5-Difluorophenyl)-1H-benzimidazol-6-yl]-7-fluoro-5-quinoxalinecarboxamide]	1.76
O=C(Nc1ccc2[nH]c(-c3cccc(F)c3)nc2c1)c1ccc(-n2cc[nH]c2=S)cc1 [Compound 57, N-[2-(3-fluorophenyl)-1H-benzimidazol-5-yl]-4-(2-sulfanylidene-3H-imidazol-1-yl)benzamide]	1.33
O=C1CCSc2ccc(C(=O)Nc3ccc4[nH]c(-c5cccc(F)c5)nc4c3)cc2N1 [Compound 58, N-[2-(3-fluorophenyl)-1H-benzimidazol-5-yl]-4-oxo-3,5-dihydro-2H-1,5-benzothiazepine-7-carboxamide]	1.56
O=C(Nc1ccc2[nH]c(-c3ccccc3Cl)nc2c1)c1ccccc1N1CCOCC1 [Compound 61, N-[2-(2-Chlorophenyl)-1H-benzimidazol-6-yl]-2-(4-morpholinyl)benzamide]	2.18
Nc1ccc(C(=O)Nc2ccc(-c3nc4cc(NC(=O)c5ccc(N)cc5)c(Cl)cc4[nH]3)cc2)cc1 [Compound 67, 4-Amino-N-[4-[5-[(4-aminobenzoyl)amino]-6-chloro-1H-benzimidazol-2-yl]phenyl]benzamide]	1.84
O=C(Nc1ccc2[nH]c(-c3cccnc3)nc2c1)c1ccccc1 [Compound 107, N-[2-(3-Pyridinyl)-1H-benzimidazol-6-yl]benzamide]	1.33
Fc1cccc(-c2nc3cc(Br)ccc3[nH]2)c1 [Compound 110, 6-Bromo-2-(3-fluorophenyl)-1H-benzimidazole]	1.43
Fc1ccc(-c2nc3cc(Br)ccc3[nH]2)cc1 [Compound 111, 6-Bromo-2-(4-fluorophenyl)-1H-benzimidazole]	1.56
O=C(Nc1ccc2nc(-c3ccc(F)cc3)[nH]c2c1)c1ccccc1 [Compound 116, N-[2-(4-Fluorophenyl)-1H-benzimidazol-6-yl]benzamide]	1.48
O=C(Nc1ccc2nc(-c3cccc(F)c3)[nH]c2c1)c1ccccc1 [Compound 117, N-(2-(3-fluorophenyl)-1H-benzo[d]imidazol-6-yl)benzamide]	1.93
O=C(Nc1ccc2nc(-c3ccccc3F)[nH]c2c1)c1ccccc1 [Compound 120, N-(2-(2-fluorophenyl)-1H-benzo[d]imidazol-6-yl)benzamide]	1.68
COc1ccccc1C(=O)Nc1ccc2nc(-c3cccnc3)[nH]c2c1 [Compound 124, 2-Methoxy-N-[2-(3-pyridinyl)-1H-benzimidazol-6-yl]benzamide]	3.5
Fc1ccccc1-c1nc2ccc(Br)cc2[nH]1 [Compound 136, 6-bromo-2-(2-fluorophenyl)-1H-Benzimidazole]	2.88
COc1ccccc1C(=O)Nc1ccc2nc(-c3ccc(F)cc3)[nH]c2c1 [Compound 145, N-(2-(4-fluorophenyl)-1H-benzo[d]imidazol-6-yl)-2-methoxybenzamide]	1.59
COc1ccccc1C(=O)Nc1ccc2nc(-c3cccc(F)c3)[nH]c2c1 [Compound 153, N-(2-(3-fluorophenyl)-1H-benzo[d]imidazol-6-yl)-2-methoxybenzamide]	1.38
COc1ccccc1C(=O)Nc1ccc2nc(-c3ccccc3F)[nH]c2c1 [Compound 157, N-(2-(2-fluorophenyl)-1H-benzo[d]imidazol-6-yl)-2-methoxybenzamide]	1.61
COc1ccccc1NC(=O)c1ccc2nc(-c3ccccc3)[nH]c2c1 [Compound 366, N-(2-methoxyphenyl)-2-phenyl-1H-benzo[d]imidazole-6-carboxamide]	1.95
COc1ccccc1NC(=O)c1ccc2nc(-c3ccccc3F)[nH]c2c1 [Compound 371, 2-(2-fluorophenyl)-N-(2-methoxyphenyl)-1H-benzo[d]imidazole-6-carboxamide]	1.84
COc1ccccc1NC(=O)c1ccc2nc(-c3cccnc3)[nH]c2c1 [Compound 375, N-(2-methoxyphenyl)-2-(pyridin-3-yl)-1H-benzo[d]imidazole-6-carboxamide]	1.6
O=C(Nc1ccc2[nH]c(-c3ccccc3)nc2c1)c1ccccc1 [Compound N4, N-(2-Phenyl-1H-benzimidazol-6-yl)benzamide]	1.61

These molecules were tested on resting mouse B cells from spleen of IL-10.eGFP mice (assay: High throughput flow cytometry-based phenotypic screen for IL-10 inducers). Conditions: 10 μM, LPS, 72 hours.
Format: cell-based
Protocol: Resting mouse B cells were isolated from spleen of IL-10.eGFP mice by magnetic depletion of CD43+ cells, and stimulated for 72 hours in 384-well plates in the presence of chemical compounds at 10 μM final. The chemical library originated from the Leibniz-Forschungsinstitut für Molekulare Pharmakologie (FMP) (Berlin, Germany). The frequency of IL-10-expressing B cells was then measured in each well by flow cytometry.

Structure (SMILES)	IL-10 expression in stimulated B cells
CC(=O)Nc1ccc(C(=O)Nc2ccc(-c3nc4cc(NC(=O)c5ccc(NC(C)=O)cc5)ccc4[nH]3)cc2)cc1 [Compound C3]	markedly increases IL-10 expression

These molecules were tested on resting mouse B cells (assay: IL-10 expression in TLR-, CD40- and BCR-stimulated B cells by flow cytometry). Conditions: 0.25 μM, stimulation through TLR4, TLR7/8, TLR9, CD40, IgM, 72 hours.
Format: cell-based
Protocol: Resting mouse B cells were isolated from spleen by magnetic depletion of CD43^+ cells and stimulated through TLR4, TLR7/8, TLR9, CD40, and IgM as indicated for 3 consecutive days. Cell culture medium was supplemented with DMSO-vehicle control, C3 or N6 at 0.25 μM. B cells from C57BL/6 mice were used to determine autofluorescence in eGFP channel and IL-10.eGFP-IL-6.tdTomato mice were used to monitor IL-10 expression by flow cytometry at 72 hours. The percentage of viable/singlets/CD19^+/IL-10^+ cells is shown. Data are presented as mean±SD. n≥3 independent experiments.

Structure (SMILES)	IL-10 expression in B cells (percentage of IL-10+ cells)
CC(=O)Nc1ccc(C(=O)Nc2ccc(-c3nc4cc(NC(=O)c5ccc(NC(C)=O)cc5)ccc4[nH]3)cc2)cc1 [Compound C3]	increase IL-10 expression in B cells across a broad range of stimulation protocols

Each molecule was assayed on resting mouse B cells (assay: Il10 mRNA expression in B cells (quantitative RT-PCR)). Conditions: 0.25 μM.
Format: cell-based
Protocol: Resting mouse B cells were isolated from spleen by magnetic depletion of CD43^+ cells. B cells were incubated with DMSO-vehicle control or N6 (0.25 μM), as such, or in combination with CpG. mRNA was extracted at different time-points and il10/actin ratio was determined.
Resting mouse B cells were isolated from spleen by magnetic depletion of CD43^+ cells. B cells were incubated with DMSO vehicle control, or C3 or N6 at 0.25 μM for the indicated time, and Il10 mRNA induction was quantified by quantitative RT-PCR.

Structure (SMILES)	Il10 transcription in unstimulated B cells
CC(=O)Nc1ccc(C(=O)Nc2ccc(-c3nc4cc(NC(=O)c5ccc(NC(C)=O)cc5)ccc4[nH]3)cc2)cc1 [Compound C3]	Increase Il10 Transcription

The molecules below were run on mouse B cell subsets (CD19+, follicular, marginal zone, blood B cells) (assay: IL-10 expression, IL-10 secretion and plasma cell generation in B cell subsets, CpG-based culture). Conditions: 0.25 μM, 3 days.
Excerpt: Resting mouse B cells were isolated from spleen by magnetic depletion of CD43^+ cells and total CD19^+ B cells, follicular B cells (CD19^+/CD21^low/−/CD23^high/CD1d^low) and marginal zone B cells (CD19^+/CD21^high/CD23^low/−/CD1d^hi) were purified by FACS. Total CD19^+ blood B cells were directly purified by FACS after red blood cell lysis. […] Generation of B220^low/CD138^high plasma cells was also quantified by flow cytometry. Data are presented as mean±SD. n≥3 independent experiments.

Structure (SMILES)	differentiation of B cells into plasma cells (B220low/CD138high)
CC(=O)Nc1ccc(C(=O)Nc2ccc(-c3nc4cc(NC(=O)c5ccc(NC(C)=O)cc5)ccc4[nH]3)cc2)cc1 [Compound C3]	increase

Same assay, conditions: 0.25 μM, 3 days, cell-free supernatants

Structure (SMILES)	amount of IL-10 produced by stimulated B cells
CC(=O)Nc1ccc(C(=O)Nc2ccc(-c3nc4cc(NC(=O)c5ccc(NC(C)=O)cc5)ccc4[nH]3)cc2)cc1 [Compound C3]	increase

Same assay, conditions: 0.25 μM, 3 days, flow cytometry

Structure (SMILES)	proportion of activated B cells expressing IL-10
CC(=O)Nc1ccc(C(=O)Nc2ccc(-c3nc4cc(NC(=O)c5ccc(NC(C)=O)cc5)ccc4[nH]3)cc2)cc1 [Compound C3]	increase
